Experimental data as given in US20040110775A1, “Cyclin dependent kinase inhibiting purine derivatives” (priority 2001, published 2004).
“And” between values parts separate entries of the source, which are not always exact repeats. Identical values can stand only once. Like-named read-outs stand apart in the source and are kept apart here.

Columns and labels:
p34 cdc2(CDK1)/cyclinB = test: CDK assay: histone H1 phosphorylation with [32P]ATP by cdc2/cyclinB kinase; format: biochemical, starfish (Marthasterias glacialis); settings: read-out: IC50 ± SD CDK1
Protocol: Assays are available for testing the inhibitory activity of the compounds of interest against a range of CDK/cyclin complexes, including CDK1/cyclin A, CDK1/cyclin B, CDK1/cyclin F, CDK2/cyclin A, CDK2/cyclin E, CDK4/cyclin D, CDK5/35 and CDK6/cyclin D3. […]
(§1) By way of example, however, a typical protocol is summarised below.
Buffer C (containing 6 mM β-glycerophosphate, 30 mM nitrophenyl phosphate, 25 mM MOPS pH 7.0, 5 mM EGTA, 15 mM MgCl2, […] and 0.1 mM sodium orthovanadate) is made up as follows:
Affinity purified p34 cdc2(CDK1)/cyclinB from M-phase starfish (Marthasterias glacialis) in 20% glycerol is stored at −80° C. in chest freezer
Histone H1 (type III-S (Sigma) 4° C.) 5 mg/ml in buffer C.
[^32P]ATP 75 mM: Make up using (multiples of) the following proportions:
DMSO cannot exceed 1% in the assay mixture. Inhibitors are added at 1/10 final assay volume and 10× final strength. DMSO stocks must therefore be diluted to 10× final desired concentration in ≦10% DMSO, ≧90% buffer C.
All reagents (except DMSO stocks) should be kept on ice until assay initiated.
Start reaction in each tube at 30 second intervals b)y adding
5 ml [^32P]ATP vortexing and placing in rack in waterbath at 30° C.
Terminate reaction after 10 min at 30 second intervals in tubes in same order by removing […] reaction mix and spotting onto appropriately labelled filter, allowing to dry for 20-30 seconds and transferring to stirring 1% phosphoric acid.
Blank incubation is performed as above but without histone (add […] buffer C instead) Washing blank is […] ATP added directly to filter.
Wash filters 5-6 times 5 min each
Dry the filters on paper towel
Count in mini scintillation vials with 5 ml scintillant.
NB. The assay can be simplified by making up stock reaction mix as follows:
(1 part cdc2/cyclinB, 16 parts buffer C, 5 parts histone H1)×Number of assay tubes+1 and add […] to each assay tube containing […] buffer C±inhibitor.
It is still necessary, however, to make up assay blank (i.e. without histone) separately.

CDK2 = CDK2 (Homo sapiens, UniProt P24941); test: Inhibition of CDK2 (CDK inhibition assay); format: biochemical; settings: read-out: IC50 ± SD CDK2
Source text: Assays are available for testing the inhibitory activity of the compounds of interest against a range of CDK/cyclin complexes, including CDK1/cyclin A, CDK1/cyclin B, CDK1/cyclin F, CDK2/cyclin A, CDK2/cyclin E, CDK4/cyclin D, CDK5/35 and CDK6/cyclin D3.
Apart from reference compounds, the compounds listed are accompanied by an NU reference or identification code number.
as §1

| Structure (SMILES) | IC50 (p34 cdc2(CDK1)/cyclinB; values given in μM) [µM] | IC50 (CDK2; values given in μM) | IC50 (p34 cdc2(CDK1)/cyclinB; values in nM) | IC50 (CDK2; values in nM) [µM] |
| --- | --- | --- | --- | --- |
| c1ccc(Nc2nc(OCC3CCCCC3)c3nc[nH]c3n2)cc1 [NU6094, 2-Anilino-6-cyclohexylmethoxypurine] | 1.6 ± 0.1 |  |  |  |
| Brc1cccc(Nc2nc(OCC3CCCCC3)c3nc[nH]c3n2)c1 [NU6095, 2-(3′-Bromoanilino)-6-cyclohexylmethoxypurine] | 5.3 ± 0.8 |  |  |  |
| COc1cccc(Nc2nc(OCC3CCCCC3)c3nc[nH]c3n2)c1 [NU6096, 6-Cyclohexylmethoxy-2-(3′-methoxyanilino)purine] | 2.2 ± 0.2 |  |  |  |
| Fc1cccc(Nc2nc(OCC3CCCCC3)c3nc[nH]c3n2)c1 [NU6098, 6-Cyclohexylmethoxy-2-(3′-fluoroanilino)purine] | ~10 | ~10 µM |  |  |
| CCc1cccc(Nc2nc(OCC3CCCCC3)c3nc[nH]c3n2)c1 [NU6099, 6-Cyclohexylmethoxy-2-(3′-ethylanilino)purine] | > 10 | > 10 µM |  |  |
| COc1ccc(Nc2nc(OCC3CCCCC3)c3nc[nH]c3n2)cc1 [NU6100, 6-Cyclohexylmethoxy-2-(4′-methoxyanilino)purine] | 0.8 ± 0.01 |  |  |  |
| CSc1cccc(Nc2nc(OCC3CCCCC3)c3nc[nH]c3n2)c1 [NU6101, 6-Cyclohexylmethoxy-2-(3′-methylmercaptoanilino)purine] | 2.4 ± 0.2 |  |  |  |
| Fc1ccc(Nc2nc(OCC3CCCCC3)c3nc[nH]c3n2)cc1 [NU6116, 6-Cyclohexylmethoxy-2-(4′-fluoroanilino)purine] | > 10 | > 10 µM |  |  |
| CSc1ccc(Nc2nc(OCC3CCCCC3)c3nc[nH]c3n2)cc1 [NU6117, 6-Cyclohexylmethoxy-2-(4′-methylmercaptoanilino)purine] | > 10 | > 10 µM |  |  |
| COC(=O)c1ccc(Nc2nc(OCC3CCCCC3)c3nc[nH]c3n2)cc1 [NU6118, Methyl 4-N-(6′-Cyclohexylmethoxypurin-2′-yl)aminobenzoate] | ~10 | ~10 µM |  |  |
| Fc1ccc(Nc2nc(OCC3CCCCC3)c3nc[nH]c3n2)cc1Cl [NU6119, 6-Cyclohexylmethoxy-2-(3′-chloro-4′-fluoroanilino)purine] | ~10 | ~10 µM |  |  |
| N#CCc1ccc(Nc2nc(OCC3CCCCC3)c3nc[nH]c3n2)cc1 [NU6121, 6-Cyclohexylmethoxy-2-(4′-cyanomethylanilino)purine] | 0.3 ± 0.1 | 0.3 ± 0.03 µM |  |  |
| O=S(=O)(NCc1ccccc1)c1ccc(Nc2nc(OCC3CCCCC3)c3nc[nH]c3n2)cc1 [NU6123, N-Benzyl-4-(cyclohexylmethoxypurine-2-ylamino)-benzenesulfonamide] | 0.7 ± 0.3 | 0.2 ± 0.1 µM |  |  |
| NS(=O)(=O)c1ccc(CNc2nc(OCC3CCCCC3)c3nc[nH]c3n2)cc1 [NU6124, 4-[(6-Cyclohexylmethoxypurine-2-ylamino)methyl]benzenesulfonamide] | 17 ± 0.3 | 15 µM and 13 µM |  |  |
| CC(=O)c1ccc(Nc2nc(OCC3CCCCC3)c3nc[nH]c3n2)cc1 [NU6125] | 0.5 ± 0.2 | 0.3 ± 0.04 µM |  |  |
| C[S+]([O-])c1ccc(Nc2nc(OCC3CCCCC3)c3nc[nH]c3n2)cc1 (stereo not drawn) [NU6126] | 0.2 ± 0.1 |  |  |  |
| CNS(=O)(=O)c1ccc(Nc2nc(OCC3CCCCC3)c3nc[nH]c3n2)cc1 [NU6127, 4-(6-Cyclohexylmethoxy-2-ylamino)-N-methylbenzenesulfonamide] |  |  | 0.009 µM and 0.01 µM |  |
| CN(C)S(=O)(=O)c1ccc(Nc2nc(OCC3CCCCC3)c3nc[nH]c3n2)cc1 [NU6128, 4-(6-Cyclohexylmethoxy-2-ylamino)-N,N-dimethylbenzenesulfonamide] |  |  | 0.077 ± 0.005 µM |  |
| CCNS(=O)(=O)c1ccc(Nc2nc(OCC3CCCCC3)c3nc[nH]c3n2)cc1 [NU6129, 4-(6Cyclohexylmethoxy-2-ylamino)-N-ethylbenzenesulfonamide] |  |  | 0.007 µM and 0.009 µM | 0.008 ± 0.002 |
